Measurements from publication PMC4266648, “Metabolism of Skin-Absorbed Resveratrol into Its Glucuronized Form in Mouse Skin” (PLoS ONE, 2014).
Entries after “also recorded” stand apart in the source; their conditions may differ.

What was measured:
TPA-induced ear edema = assay: TPA-induced ear edema; format: in vivo, mouse; conditions: for Ear thickness: 24 h after 1 µg TPA, before TPA 0.22 mm, TPA control 0.30 mm, female C57BL/6 mice
Procedure: The ear edema model was employed as previously described. Briefly, 1 µg 12-O-Tetradecanoylphorbol-13-acetate (TPA) was applied to the right ear of female C57BL/6 mice. Edema was evaluated by measuring ear thickness and ear weight. […] Ear thickness was measured with a micrometer before and 24 h after TPA treatment. After sacrificing mice with CO2, ear punch biopsies (6 mm diameter) were weighed.

[1] = system: HepG2 (human hepatoblastoma cells); assay: RESV metabolism in cell culture (LC-MS), HepG2; conditions: HepG2, 20 or 200 µM RESV, 4 h
Procedure: (§1) Cells were maintained in Dulbecco’s Modified Eagle Medium (DMEM) with 1% penicillin/streptomycin and 2 mM L-glutamine with some modifications as follows; DMEM (1.0 g/L glucose) with 10% fetal calf serum (FCS) for HepG2; DMEM (4.5 g/L glucose) with 10% FCS for HaCaT; DMEM (4.5 g/L glucose) with 20% FCS for C2C12. C2C12 cells were differentiated into myotubes by switching medium into DMEM containing 2% horse serum. Cells were plated on a 10 cm dish and allowed to adhere for 18 h. […] After 4 h incubation, cells were washed with PBS twice, followed by addition of 2 mL 50% ice-cold methanol. Collected cells were transferred into tubes on ice and further processed as described in metabolome sample preparation section.
(§2) After addition of internal standards (10 nmol HEPES and PIPES) to metabolome samples and brief vortexing, samples were transferred to Amicon Ultra 10 kDa cut-off filters (Millipore, Billerica, MA, USA) to remove proteins. […]
(§3) LC-MS data were obtained using a Paradigm MS4 HPLC system (Michrom Bioresources, Auburn, CA, USA) coupled to an LTQ Orbitrap mass spectrometer (Thermo Fisher Scientific, Waltham, MA, USA), as described previously [38]. […] Peak areas of metabolites of interest were measured using the MZmine 2.10 software [39] and normalized using the peak areas of HEPES and PIPES, as described in S2 Table.

[2] = system: HaCaT (human keratinocytes); assay: RESV metabolism in cell culture (LC-MS), HaCaT; conditions: 20 or 200 µM RESV, 4 h
Procedure: as §1, §2, §3

C2C12 (mouse myoblasts) = assay: RESV metabolism in cell culture (LC-MS), C2C12; conditions: C2C12, 20 or 200 µM RESV, 4 h
Procedure: as §1, §2, §3

[3] = Distribution of RESV metabolites in mouse tissues after oral and dermal administration (LC-MS); format: in vivo, mouse; conditions: for Tissue distribution of metabolite: hairless mice, 4 h after 1 mg RESV, both oral and skin administration
Procedure: Mice were separated from each other and could not lick RESV from their dorsal skin.
Mice were anesthetized with pentobarbital and blood was collected from the right ventricle. For metabolite extraction 0.2 mL of blood were mixed with 1.8 mL 55% methanol, pre-chilled to −40°C and kept until further processing as described in the metabolome sample preparation section. In addition to blood, metabolome samples were prepared from liver, dorsal skin, leg skin, and hind limb muscle.
Around 100 mg of each mouse tissue was dissected and weighed. Tissues were minced and homogenized for 3 min in 500 µL 50% methanol on ice using a BioMasher II (Nippi, Tokyo, Japan). Next, 1 mL 50% methanol and internal standards (10 nmol 4-(2-hydroxyethyl)-1-piperazineethanesulfonic acid (HEPES) and piperazine-N,N’-bis(2-ethanesulfonic acid) (PIPES)) were added to the samples. HEPES and PIPES were used as internal standards to correct for the variation of sample preparation and different detection efficiency. After brief vortexing, samples were centrifuged at 500 g for 10 min at 4°C. Supernatant was recovered for further processing as described in the metabolome sample preparation section (without the repeated addition of internal standards and vortexing).
Metabolome sample preparation was previously described.
Peaks were assigned to metabolites based upon their retention times and m/z values. Compounds were confirmed with standards (STD) or with analysis of MS/MS spectra (MS/MS), if no standard was available. In cases where no standard compound or MS/MS spectrum was available, compounds were identified by generating chemical formulae using m/z values in MZmine 2.10 module and given MS status. Data were analyzed using the scatter plot function built into MZmine 2.10 software, as well as by exporting the data to a spreadsheet.

[4] = RESV-treated mouse samples, LC-MS negative ionization mode

**Q.** For `Oc1ccc(/C=C/c2cc(O)cc(O)c2)cc1` [RESV, trans-resveratrol], which Ear weight (TPA-induced ear edema; 6 mm ear punch 24 h after TPA, 1 mg RESV oral, TPA-treated mice 9.4 mg) is on record?
**A.** Its Ear weight is 8.1 mg.

**Q.** And the Ear thickness (TPA-induced ear edema; 1 mg RESV applied topically to ear 30 min after TPA)?
**A.** Its Ear thickness is 0.21 mm.

**Q.** And the Ear thickness (TPA-induced ear edema; 1 mg RESV orally 30 min after TPA)?
**A.** The Ear thickness was 0.26 mm.

**Q.** Which “Detection of metabolite (normalized peak area) in cells treated with RESV” value [1] does the source give for `O=C(O)[C@H]1O[C@@H](Oc2cc(O)cc(/C=C/c3ccc(O)cc3)c2)[C@H](O)[C@@H](O)[C@@H]1O` (relative stereo) [trans-RESV-3-O-GLUC, trans-resveratrol-3-O-glucuronide] here?
**A.** Its value is “detected”.

**Q.** What about the “Detection of metabolite (normalized peak area) in cells treated with RESV” value [2] of the same compound?
**A.** Its value is “detected”.

**Q.** What about the “Detection of metabolite (normalized peak area) in cells treated with RESV” value (C2C12 (mouse myoblasts)) of the same compound?
**A.** Its value is “detected”.

**Q.** Which “Detection of metabolite (normalized peak area) in cells treated with RESV” value [1] does the source give for `O=C(O)[C@H]1O[C@@H](Oc2cc(O)cc(/C=C\c3ccc(O)cc3)c2)[C@H](O)[C@@H](O)[C@@H]1O` (relative stereo) [cis-RESV-3-O-GLUC, cis-Resveratrol-3-O-glucuronide] here?
**A.** The value was “detected”.

**Q.** What about the “Detection of metabolite (normalized peak area) in cells treated with RESV” value [2] of the same compound?
**A.** The value was “detected”.

**Q.** What about the “Detection of metabolite (normalized peak area) in cells treated with RESV” value (C2C12 (mouse myoblasts)) of the same compound?
**A.** The value was “detected”.

**Q.** With “Dihydroresveratrol- glucuronide [DH-RESV-GLUC]” as the compound, how does the “Tissue distribution of metabolite” value [3] read?
**A.** The value was “detected in blood and liver as well as at lower levels in skin and muscle”.

**Q.** For Resveratrol-diglucuronide [RESV-DIGLUC], which “Reports and comments: samples in which the metabolite was detected” value (from here on “Reports and comments: samples”) ([3]; mouse, in vivo) is on record?
**A.** The value was “Detected in mouse skin samples”.

**Q.** Which “Detection of metabolite in mouse and cell culture samples” value ([3]; mouse, in vivo) does the source give for `O=C(O)[C@H]1O[C@@H](Oc2ccc(/C=C\c3cc(O)cc(O)c3)cc2)[C@H](O)[C@@H](O)[C@@H]1O` (relative stereo) [cis-RESV-4-O-glucuronide, cis-resveratrol-4-O-glucuronide] here?
**A.** Its value is “barely detected”.

**Q.** Which “Reports and comments: samples” value [3, 4] does the source give for “Dihydroresveratrol- sulfoglucuronide [DH-RESV-SULF-GLUC]” here?
**A.** The value was “Detected in mouse liver samples”.

**Q.** With “Dihydroresveratrol-sulfate [DH-RESV-SULF]” as the compound, how does the “Tissue distribution of metabolite” value [3] read?
**A.** The value was “detected mainly in liver and blood; also recorded: barely detectable in dorsal and leg skin, and muscle”.

**Q.** For `O=C(O)[C@H]1O[C@@H](Oc2ccc(/C=C/c3cc(O)cc(O)c3)cc2)[C@H](O)[C@@H](O)[C@@H]1O` (relative stereo) [trans-RESV-4-O-glucuronide, trans-resveratrol-4-O-glucuronide], which “Detection of metabolite in mouse and cell culture samples” value ([3]; mouse, in vivo) is on record?
**A.** The value was “barely detected”.

**Q.** With Resveratrol-disulfate [RESV-DISULF] as the compound, how does the “Reports and comments: samples” value [3, 4] read?
**A.** The value was “Detected in mouse blood and liver samples”.

**Q.** Which “Reports and comments: samples” value ([3]; mouse, in vivo) does the source give for “Resveratrol-sulfoglucuronide [RESV-SULF-GLUC]” here?
**A.** Its value is “Azorin-Ortuno et al 2011 [4] (MS/MS data) Detected in blood mouse blood samples”.
